Data taken from publication PMC11665553, “12-Lipoxygenase inhibition delays onset of autoimmune diabetes in human gene replacement mice” (JCI Insight, 2024).
“And” between values parts separate entries of the source, which are not always exact repeats. Identical values can stand only once.

How the values were obtained:
[1] = tested on: NOD.hALOX12 mice; experiment: NanoString spatial proteomics of insulitic and insulin-positive areas in NOD.hALOX12 mice; type: in vivo, mouse
Source text: To specifically interrogate the nature of immune cells within the insulitic region, we performed spatial tissue-based proteomics (NanoString). We used insulin immunostaining and nuclei staining to identify β cells and the surrounding insulitic regions. Prevalidated antibodies in the GeoMx mouse immune panel were used to probe for immune cell subtypes in the peri-islet insulitic region and within the islet. […] This reduction in myeloid cell populations was accompanied by a decrease in T and B cells populations, including CD4^+, CD3^+, CD8^+, and CD19^+ cells (Figure 2F and Supplemental Figure 2, A and B). […] Enhanced PD-L1/PD-1 interactions shift T cells to less aggressive, more regulatory phenotypes ([21]).
Paraffin embedded pancreata were used for NanoString spatial proteomics analysis. Tissues were stained with morphology markers: AF-647–conjugated insulin (Cell Signaling Technology, 9008s; 1:400) and nuclei marker (SYTO13). Tissues were hybridized using a pre-validated mouse GeoMx Immune cell panel (NanoString, GMX-PROCONCT-MICP) comprising the following markers: PD-1, CD11c, CD8a, PanCk, MHC II, CD19, CTLA4, SMA, CD11b, CD3e, fibronectin, Ki-67, CD4, GZMB, F4/80, CD45, PD-L1; housekeeping genes: histone H3, S6, GAPDH; and IgG antibodies: Rb IgG, Rat IgG2a, and Rat IgG2b for background subtraction. All markers were conjugated to unique UV-photocleavable oligos for indexing. At least 5 or 6 islets with insulitis were chosen as regions of interest (ROIs) per mouse based on the morphology markers (insulin and nuclei). The ROIs were segmented into insulitic region and insulin^+ region for each islet. Oligonucleotides from the segmented ROIs were photocleaved, collected in a 96-well plate, and reads were counted using nCounter (NanoString). Scaling was performed to normalize for any differences in tissue surface area and depth. After scaling, reads were normalized to housekeeping markers and background was subtracted using IgG markers.

[2] = tested on: NOD.hALOX12 mice; experiment: as above; type: in vivo, mouse; details: Insulitic Area; Fig 2F source data, individual values
[3] = Pharmacokinetics after single p.o. dose in C57BL/6J mice (plasma LC-MS/MS)
[4] = Insulitic Area, Fig 2F source data, individual values
[5] = female NOD.hALOX12 mice, 30 mg/kg p.o., 4 weeks
[6] = sheet SFig 2A, individual regions of interest
[7] = C57BL/6J, mouse, plasma, po, 30 mg/kg

With COc1cccc(CNc2ccc(S(=O)(=O)Nc3nc4ccccc4s3)cc2)c1O [VLX-1005] the CD11b [1, 4] was 5.147 and 5.277 and 5.327 and 5.94 and 5.07 and 5.565 and 5.634 and 5.068 and 4.855 and 6.029, the CD11c [1, 4] was 2.876 and 1.502 and 2.598 and 4.232 and 2.537 and 2.93 and 3.146 and 2.8254 and 2.641 and 4.743 and the “CD45 (first CD45 row)” value [1, 4] was 5.25 and 3.49 and 3.636 and 8.487 and 3.645 and 3.942 and 4.828 and 3.892 and 3.054 and 8.111. The “CD45 (second CD45 row)” value [1, 4] was -0.2135 and 0.0264 and 0.3853 and 4.031 and -1.253 and 0.3826 and 0.2212 and -1.155 and 0.06453 and 3.867, the CTLA4 [1, 4] was 1.939 and 2.368 and 2.417 and 1.307 and 2.276 and 2.4212 and 3.583 and 2.587 and 3.2171 and 2.563 and the F4/80 [1, 4] was 0.2536 and 0.7983 and 1.224 and 1.023 and -0.1728 and 1.356 and 2.254 and 0.8327 and -0.1455 and 1.282. For the same molecule, the GZMB [1, 4] was 4.352 and 4.4072 and 5.2506 and 2.9798 and 5.432 and 6.733 and 6.076 and 5.882 and 4.529 and 3.344, the “MHC II” value [1, 4] was -0.6174 and 1.207 and 0.8883 and -0.3662 and -0.4066 and -0.144 and -0.3371 and 1.073 and -0.07508 and -1.247 and the PD-1 [1, 4] was -0.3236 and 0.1793 and 1.041 and 1.538 and -1.244 and -0.5413 and -0.07496 and 0.52 and -0.1742 and 0.5415. For the same molecule, the PD-L1 [1, 4] was 1.897 and 1.722 and 1.56 and 0.2193 and 1.6509 and 2.371 and 2.045 and 2.4831 and 1.059 and 0.2909, the “Myeloid population subtypes (macrophages, dendritic cells) in insulitic and islet areas” value [1, 5] was “notable reduction” and the “PD-L1 levels (spatial proteomics)” value [1, 5] was “increased levels”. For the same molecule, the “T and B cell populations (CD4+, CD3+, CD8+, CD19+) in insulitic and islet areas” value [1, 5] was “decrease”, the CD4 [1, 6] was 0.3826 and 0.2212 and -1.155 and 0.06453 and 3.867 and -0.2135 and 0.0264 and 0.3853 and 4.031 and -1.253 and the CD8 [1, 6] was 1.856 and 1.666 and 1.577 and 1.141 and 2.8916 and 1.46 and 1.4593 and 2.166 and 2.266 and 1.44. The CD11b [1, 6] was 5.565 and 5.634 and 5.068 and 4.855 and 6.029 and 5.147 and 5.277 and 5.327 and 5.94 and 5.07, the CD11c [1, 6] was 2.93 and 3.146 and 2.8254 and 2.641 and 4.743 and 2.876 and 1.502 and 2.598 and 4.232 and 2.537 and the CD19 [1, 6] was 0.2718 and 0.8536 and 0.6292 and 1.249 and 2.864 and 0.1873 and -0.4029 and 0.4865 and 2.831 and -0.3159. For the same molecule, the CD-3e [1, 6] was 4.049 and 3.547 and 4.013 and 3.889 and 3.319 and 3.27 and 3.43 and 3.812 and 3.482 and 3.738, the CTLA4 [1, 6] was 2.4212 and 3.583 and 2.587 and 3.2171 and 2.563 and 1.939 and 2.368 and 2.417 and 1.307 and 2.276 and the F4/80 [1, 6] was 1.356 and 2.254 and 0.8327 and -0.1455 and 1.282 and 0.2536 and 0.7983 and 1.224 and 1.023 and -0.1728. The GZMB [1, 6] was 6.733 and 6.076 and 5.882 and 4.529 and 3.344 and 4.352 and 4.4072 and 5.2506 and 2.9798 and 5.432, the PD-1 [1, 6] was -0.5413 and -0.07496 and 0.52 and -0.1742 and 0.5415 and -0.3236 and 0.1793 and 1.041 and 1.538 and -1.244 and the PD-L1 [1, 6] was 2.371 and 2.045 and 2.4831 and 1.059 and 0.2909 and 1.897 and 1.722 and 1.56 and 0.2193 and 1.6509. For the same molecule, the Ki67 ([1]; sheet SFig 2B, individual regions of interest) was 1.4 and 1.3004, the CD19 [2] was 0.1873 and -0.4029 and 0.4865 and 2.831 and -0.3159 and 0.2718 and 0.8536 and 0.6292 and 1.249 and 2.864 and the AUC%extrap_obs ([3]; C57BL/6J mice, 30 mg/kg p.o., mean ± SD) was 0.342 ± 0.133%. For the same molecule, the AUC(0-inf) [3, 7] was 15100 ng·h/mL, the AUC(0-t) [3, 7] was 15000 ng·h/mL and the Cmax [3, 7] was 13300 ng/mL. For the same molecule, the MRT inf [3, 7] was 2.57 ± 0.38 h and the half-life [3, 7] was 3.24 ± 0.07 h.
